Measured values reported in patent publication US8916681B2, “Compound, use and method” (Medical Research Council, priority 2007, dated 2014).
“Also recorded” adds a separate entry of the source. Non-standard residues stand in square brackets, D forms with d. Residues, ends and D or L forms follow the SMILES beside them.

Assays:
[1] = tested on: GnRH release; experiment: GnRH release in the stalk-median eminence, microdialysis; assay type: in vivo, rhesus monkey; conditions: pubertal female rhesus monkeys; 10 nM infused over 30 min through microdialysis probe
Procedure: Four female rhesus monkeys, born and raised in the Wisconsin National Primate Research Center, were used in this study. They were housed in pairs (cages 172×86×86 cm) in rooms with 12 h of light 12 h of darkness and controlled temperature (22° C.). The animals were fed a standard diet of Harlan 20% Protein Primate Diet twice each day, supplemented with fresh fruit several times per week. Water was available ad libitum. The protocol for this study was reviewed and approved by the Animal Care and Use Committee, University of Wisconsin, and all experiments were conducted under the guidelines established by the NIH and USDA.
The effects of peptide 234 on GnRH release were examined using the microdialysis method. This method allows collection of dialysate samples for GnRH measurement while peptide 234 was infused through the semi-permeable membrane, as described previously (25)′(24). Peptide 234 dissolved in CNS perfusion fluid was infused in the stalk median eminence region through the microdialysis probe for 30 min while dialysates were continuously collected. […]
On the day of experiment the monkey was placed in the stereotaxic apparatus under ketamine (15 mg/kg b.w.) and medetomidine (0.03-0.05 mg/kg b.w.) anesthesia. […] The x, y, and z coordinates for the S-ME were calculated using ventriculographs and the final radiographs taken during cranial pedestal implantation surgery. […]

[2] = target: GPR54 (Homo sapiens, UniProt Q969F8); experiment: Inositol phosphate (IP) stimulation assay in CHO/gpr-54 cells; assay type: cell-based; design: G. Vassart, Univ; Brussels; conditions: CHO cells stably-expressing human gpr-54
Sequence of GPR54 (Q969F8 whole entry): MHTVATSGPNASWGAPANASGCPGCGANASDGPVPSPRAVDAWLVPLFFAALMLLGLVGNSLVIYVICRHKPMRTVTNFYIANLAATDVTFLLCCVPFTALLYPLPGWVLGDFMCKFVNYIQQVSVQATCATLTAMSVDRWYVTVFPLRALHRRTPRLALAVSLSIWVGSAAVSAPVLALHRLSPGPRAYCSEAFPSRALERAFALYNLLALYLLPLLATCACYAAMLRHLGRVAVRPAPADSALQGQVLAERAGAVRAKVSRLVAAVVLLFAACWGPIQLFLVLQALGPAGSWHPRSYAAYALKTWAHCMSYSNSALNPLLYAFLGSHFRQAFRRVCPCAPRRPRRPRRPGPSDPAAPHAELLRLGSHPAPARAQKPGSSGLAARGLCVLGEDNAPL
Procedure: Inositol-3-phoshate Stimulation Assay—Cell monolayers had 0.5 mls HEPES modified DMEM supplemented with 1% Penicillin/Streptomycin for 30 mins at 37° C. to block IP3 breakdown. Cells were then stimulated with 0.5 mls Kisspeptin-10 and analogues (10 pM-1 uM) diluted at 1:1000 in the above media for 1 hr at 37° C., then in 10 mM Formic acid at 4° C. for 1 hr to lyse cells. Lysate was then transferred to plastic tubes containing 0.5 mls Dowex resin to bind the radioactive IP3 and the resin was then washed with 1 ml H2O. The resin was then washed with 60 mM NH4 formate/5 mM Sodium tetraborate followed by 1M NH4 formate/0.1M Formic acid to release the bound radiation. Then 800 μls of the radioactive solution were transferred to scintillation vials containing 2.5 mls scintillation fluid and radioactivity counted on a Beta counter for 60 seconds.
IP stimulation refers to intrinsic residual agonist activity where estimateable.
The cells were maintained in Dulbecco's modified Eagle's medium (DMEM; Sigma) supplemented with 10% fetal calf serum, 2% glutamine and 1% penicillin (10,000 units/ml)/streptomycin (10,000 mg/ml) at 37° C. in a humidified 5% CO2 atmosphere.
Prior to stimulation CHO/gpr-54 cells were washed twice with Dulbecco's phosphate-buffered saline (DPBS; without calcium or magnesium) then incubated overnight with ^3H-myoinositol, labeled HEPES-modified DMEM with 1% penicillin/streptomycin at 37° C. HEPES-modified DMEM supplemented with 1% penicillin/streptomycin and 1% lithium chloride (0.5 ml) was added to cells for 30 min at 37° C. to block IP hydrolysis. Cells were then stimulated with 0.5 ml kisspeptin-10 and analogues (10 pM-1 μM) diluted at 1:100 in the above media for 1 h at 37° C., then with 10 mM formic acid at 4° C. for 1 h to lyse cells. Lysates were transferred to plastic tubes containing 0.5 ml Dowex resin to bind the radioactive IP and the resin was then washed with 1 ml water. The resin was next washed with 60 mM ammonium formate/5 mM sodium tetraborate. followed by 1M ammonium formate/0.1M formic acid to release the bound radiation. Then 800 μl of the radioactive solution were transferred to scintillation vials containing 2.5 ml scintillation fluid and radioactivity counted on a Beta counter for 60 sec. Experiments were repeated 3-5 times. IP production was plotted as mean values±SEM and analyzed by using a Student's t-Test (p≧0.05).

Q: For CC(=O)N[C@H](C)C(=O)N[C@@H](CC(N)=O)C(=O)N[C@@H](Cc1c[nH]c2ccccc12)C(=O)N[C@@H](CC(N)=O)C(=O)NCC(=O)N[C@@H](Cc1ccccc1)C(=O)NCC(=O)N[C@H](Cc1c[nH]c2ccccc12)C(=O)N[C@@H](CCCNC(=N)N)C(=O)N[C@@H](Cc1ccccc1)C(N)=O [Peptide 234] (Ac-[dA]NWNGFG[dW]RF-NH2), which “GnRH pulses and mean GnRH levels” value [1] is on record?
A: The value was “suppressed”.

Q: What about the “stimulation of IP by the peptide alone” value [2] of the same compound?
A: Its value is “little or no stimulation; also recorded: no intrinsic IP stimulation”.
